Measured values taken from PubChem BioAssay (NCI).
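Interpolation was linear, between the two tested concentrations surrounding the appropriate level; five concentrations were tested over 48 hours in 96-well plates. TGI denotes the concentration required for complete inhibition of growth.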

What was measured:
Assay in all cases: NCI anticancer screen, dose series, 48 h
HCC-2998 colon = system: HCC-2998 colon
KM12 colon = system: KM12 colon
SW-620 colon = system: SW-620 colon
CCRF-CEM leukemia = system: CCRF-CEM leukemia
PC-3 prostate = system: PC-3 prostate
RPMI-8226 leukemia = system: RPMI-8226 leukemia
OVCAR-5 ovarian = system: OVCAR-5 ovarian
HS 578T breast = system: HS 578T breast
HOP-92 NSCLC = system: HOP-92 NSCLC
HCT-15 colon = system: HCT-15 colon
MALME-3M melanoma = system: MALME-3M melanoma
SK-MEL-28 melanoma = system: SK-MEL-28 melanoma
K-562 leukemia = system: K-562 leukemia
RXF 393 renal = system: RXF 393 renal
NCI-H522 lung = system: NCI-H522 lung
EKVX NSCLC = system: EKVX NSCLC
SF-539 CNS = system: SF-539 CNS
MOLT-4 leukemia = system: MOLT-4 leukemia
HT29 colon = system: HT29 colon
HCT-116 colon = system: HCT-116 colon
SNB-75 CNS = system: SNB-75 CNS
ACHN renal = system: ACHN renal
TK-10 renal = system: TK-10 renal
SK-MEL-2 melanoma = system: SK-MEL-2 melanoma
MDA-MB-435 = system: MDA-MB-435
NCI-H460 lung = system: NCI-H460 lung
UO-31 renal = system: UO-31 renal
NCI/ADR-RES ovarian = system: NCI/ADR-RES ovarian
786-0 renal = system: 786-0 renal
T-47D breast = system: T-47D breast
COLO 205 colon = system: COLO 205 colon
HOP-62 NSCLC = system: HOP-62 NSCLC
OVCAR-8 ovarian = system: OVCAR-8 ovarian
MCF7 breast = system: MCF7 breast
SK-OV-3 ovarian = system: SK-OV-3 ovarian
A498 renal = system: A498 renal
MDA-N = system: MDA-N
SF-295 CNS = system: SF-295 CNS
DU-145 prostate = system: DU-145 prostate
SK-MEL-5 melanoma = system: SK-MEL-5 melanoma
A549 NSCLC = system: A549 NSCLC
IGROV1 ovarian = system: IGROV1 ovarian
SN12C renal = system: SN12C renal
SF-268 CNS = system: SF-268 CNS
MDA-MB-231 breast = system: MDA-MB-231 breast
UACC-62 melanoma = system: UACC-62 melanoma
LOX IMVI melanoma = system: LOX IMVI melanoma
OVCAR-4 ovarian = system: OVCAR-4 ovarian
NCI-H226 lung = system: NCI-H226 lung
HL-60(TB) leukemia = system: HL-60(TB) leukemia
OVCAR-3 ovarian = system: OVCAR-3 ovarian
NCI-H23 lung = system: NCI-H23 lung
UACC-257 melanoma = system: UACC-257 melanoma
SNB-19 CNS = system: SNB-19 CNS
M14 melanoma = system: M14 melanoma
SR leukemia = system: SR leukemia
CAKI-1 renal = system: CAKI-1 renal
U251 CNS = system: U251 CNS

CCOC(=O)Cn1sc2ncc([N+](=O)[O-])cc2c1=O
TGI (HCC-2998 colon): 32.2 µM
TGI (KM12 colon): 34.3 µM
TGI (SW-620 colon): 30.6 µM
TGI (CCRF-CEM leukemia): 5.41 µM
TGI (PC-3 prostate): 28 µM
TGI (RPMI-8226 leukemia): > 100 µM
TGI (OVCAR-5 ovarian): 38 µM
TGI (HS 578T breast): > 100 µM
TGI (HOP-92 NSCLC): 26.9 µM
TGI (HCT-15 colon): 31.2 µM
TGI (MALME-3M melanoma): 33.9 µM
TGI (SK-MEL-28 melanoma): 28.6 µM
TGI (K-562 leukemia): 12.3 µM
TGI (RXF 393 renal): 35.4 µM
TGI (NCI-H522 lung): 39.5 µM
TGI (EKVX NSCLC): > 100 µM
TGI (SF-539 CNS): 38.5 µM
TGI (MOLT-4 leukemia): 9.45 µM
TGI (HT29 colon): 29.8 µM
TGI (HCT-116 colon): 31.1 µM
TGI (SNB-75 CNS): 89.1 µM
TGI (ACHN renal): 29.5 µM
TGI (TK-10 renal): 32.8 µM
TGI (SK-MEL-2 melanoma): 70.9 µM
TGI (MDA-MB-435): 30 µM
TGI (NCI-H460 lung): 34.4 µM
TGI (UO-31 renal): 21.8 µM
TGI (NCI/ADR-RES ovarian): 35.5 µM
TGI (786-0 renal): 30.6 µM
TGI (T-47D breast): 37.5 µM
TGI (COLO 205 colon): 25.6 µM
TGI (HOP-62 NSCLC): 30 µM
TGI (OVCAR-8 ovarian): 30.3 µM
TGI (MCF7 breast): 35.3 µM
TGI (SK-OV-3 ovarian): 34.6 µM
TGI (A498 renal): > 100 µM
TGI (MDA-N): 24.9 µM
TGI (SF-295 CNS): 34.8 µM
TGI (DU-145 prostate): > 100 µM
TGI (SK-MEL-5 melanoma): 85.3 µM
TGI (A549 NSCLC): 39.7 µM
TGI (IGROV1 ovarian): 25.9 µM
TGI (SN12C renal): 31.6 µM
TGI (SF-268 CNS): 44.6 µM
TGI (MDA-MB-231 breast): 29.3 µM
TGI (UACC-62 melanoma): 48.4 µM
TGI (LOX IMVI melanoma): 26.4 µM
TGI (OVCAR-4 ovarian): 38 µM
TGI (NCI-H226 lung): > 100 µM
TGI (HL-60(TB) leukemia): > 100 µM
TGI (OVCAR-3 ovarian): 33.4 µM
TGI (NCI-H23 lung): 39.3 µM
TGI (UACC-257 melanoma): 31.6 µM

CN1CCC(OC(=O)Oc2ccccc2)(c2ccccc2)CC1
TGI (SNB-19 CNS): 69.2 µM
TGI (HCC-2998 colon): 38.3 µM
TGI (KM12 colon): 37.5 µM
TGI (SW-620 colon): 59.6 µM
TGI (CCRF-CEM leukemia): 55.1 µM
TGI (PC-3 prostate): 45.8 µM
TGI (RPMI-8226 leukemia): 35.7 µM
TGI (OVCAR-5 ovarian): 84.2 µM
TGI (HS 578T breast): 54.3 µM
TGI (M14 melanoma): 28.2 µM
TGI (HCT-15 colon): 36.8 µM
TGI (MALME-3M melanoma): 32.5 µM
TGI (SK-MEL-28 melanoma): 41.7 µM
TGI (K-562 leukemia): 55.3 µM
TGI (RXF 393 renal): > 100 µM
TGI (SR leukemia): 42.6 µM
TGI (NCI-H522 lung): 49.8 µM
TGI (EKVX NSCLC): 79.5 µM
TGI (SF-539 CNS): 26.5 µM
TGI (MOLT-4 leukemia): 36.4 µM
TGI (HT29 colon): 26 µM
TGI (HCT-116 colon): 30.5 µM
TGI (SNB-75 CNS): 63.3 µM
TGI (ACHN renal): > 100 µM
TGI (TK-10 renal): 37.7 µM
TGI (SK-MEL-2 melanoma): 33.2 µM
TGI (MDA-MB-435): 33.7 µM
TGI (NCI-H460 lung): 39.3 µM
TGI (UO-31 renal): 54.2 µM
TGI (NCI/ADR-RES ovarian): 39.2 µM
TGI (786-0 renal): > 100 µM
TGI (T-47D breast): 52.1 µM
TGI (CAKI-1 renal): > 100 µM
TGI (COLO 205 colon): 25.8 µM
TGI (HOP-62 NSCLC): 40.6 µM
TGI (OVCAR-8 ovarian): 33 µM
TGI (MCF7 breast): 35.1 µM
TGI (SK-OV-3 ovarian): 52.9 µM
TGI (A498 renal): 56.4 µM
TGI (MDA-N): 34.9 µM
TGI (U251 CNS): 44.9 µM
TGI (SF-295 CNS): 55.4 µM
TGI (DU-145 prostate): > 100 µM
TGI (SK-MEL-5 melanoma): 34.2 µM
TGI (A549 NSCLC): > 100 µM
TGI (IGROV1 ovarian): 64.5 µM
TGI (SN12C renal): 43.8 µM
TGI (SF-268 CNS): > 100 µM
TGI (MDA-MB-231 breast): 29.1 µM
TGI (UACC-62 melanoma): 37.6 µM
TGI (LOX IMVI melanoma): 34 µM
TGI (OVCAR-4 ovarian): 48.4 µM
TGI (NCI-H226 lung): 62.7 µM
TGI (HL-60(TB) leukemia): 36.6 µM
TGI (OVCAR-3 ovarian): > 100 µM
TGI (NCI-H23 lung): 35.7 µM
TGI (UACC-257 melanoma): 34 µM
